Experimental data from PubChem BioAssay (NCI).
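Following 48 hours of exposure in 96-well plates, responses at five concentrations were used to interpolate endpoints linearly. GI50 marks 50% less growth. The concentration for full growth arrest is given as TGI.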

Experiments:
Assay in all cases: NCI-60 cell line screen, 48 h
NCI/ADR-RES ovarian = system: NCI/ADR-RES ovarian
MDA-MB-435 = system: MDA-MB-435
NCI-H460 lung = system: NCI-H460 lung
CCRF-CEM leukemia = system: CCRF-CEM leukemia
SK-MEL-2 melanoma = system: SK-MEL-2 melanoma
HCT-15 colon = system: HCT-15 colon
HOP-62 NSCLC = system: HOP-62 NSCLC
OVCAR-3 ovarian = system: OVCAR-3 ovarian
U251 CNS = system: U251 CNS
LOX IMVI melanoma = system: LOX IMVI melanoma
IGROV1 ovarian = system: IGROV1 ovarian
SF-539 CNS = system: SF-539 CNS
TK-10 renal = system: TK-10 renal
HS 578T breast = system: HS 578T breast
EKVX NSCLC = system: EKVX NSCLC
OVCAR-8 ovarian = system: OVCAR-8 ovarian
NCI-H226 lung = system: NCI-H226 lung
NCI-H23 lung = system: NCI-H23 lung
UO-31 renal = system: UO-31 renal
SK-MEL-28 melanoma = system: SK-MEL-28 melanoma
SNB-75 CNS = system: SNB-75 CNS
SR leukemia = system: SR leukemia
PC-3 prostate = system: PC-3 prostate
M14 melanoma = system: M14 melanoma
A498 renal = system: A498 renal
HT29 colon = system: HT29 colon
COLO 205 colon = system: COLO 205 colon
T-47D breast = system: T-47D breast
SF-268 CNS = system: SF-268 CNS
UACC-257 melanoma = system: UACC-257 melanoma
OVCAR-5 ovarian = system: OVCAR-5 ovarian
KM12 colon = system: KM12 colon
SK-MEL-5 melanoma = system: SK-MEL-5 melanoma
OVCAR-4 ovarian = system: OVCAR-4 ovarian
SNB-19 CNS = system: SNB-19 CNS
786-0 renal = system: 786-0 renal
UACC-62 melanoma = system: UACC-62 melanoma
CAKI-1 renal = system: CAKI-1 renal
SK-OV-3 ovarian = system: SK-OV-3 ovarian
RPMI-8226 leukemia = system: RPMI-8226 leukemia
HL-60(TB) leukemia = system: HL-60(TB) leukemia
K-562 leukemia = system: K-562 leukemia
SN12C renal = system: SN12C renal
SF-295 CNS = system: SF-295 CNS
MDA-MB-231 breast = system: MDA-MB-231 breast
SW-620 colon = system: SW-620 colon
NCI-H522 lung = system: NCI-H522 lung
MCF7 breast = system: MCF7 breast
DU-145 prostate = system: DU-145 prostate
HCC-2998 colon = system: HCC-2998 colon
HOP-92 NSCLC = system: HOP-92 NSCLC
BT-549 breast = system: BT-549 breast
RXF 393 renal = system: RXF 393 renal
A549 NSCLC = system: A549 NSCLC
MALME-3M melanoma = system: MALME-3M melanoma
HCT-116 colon = system: HCT-116 colon
MOLT-4 leukemia = system: MOLT-4 leukemia
ACHN renal = system: ACHN renal

Which GI50 (NCI/ADR-RES ovarian) does the source give for CC[C@H](C)[C@H](NC(=O)NC(C)(C)C)C(=O)N(C)[C@H](C[C@@H](OC(C)=O)c1nc(C(=O)N[C@@H](Cc2ccccc2)C[C@H](C)C(=O)OC)cs1)C(C)C here?
The GI50 was 1790 nM.

What about the TGI (NCI/ADR-RES ovarian) of the same compound?
The TGI was 24900 nM.

What about the GI50 (MDA-MB-435) of the same compound?
Its GI50 is 88.4 nM.

What about the TGI (MDA-MB-435) of the same compound?
Its TGI is 486 nM.

And the GI50 (NCI-H460 lung)?
The GI50 was 699 nM.

And the TGI (NCI-H460 lung)?
Its TGI is over 13700 nM.

What about the GI50 (CCRF-CEM leukemia) of the same compound?
The GI50 was 718 nM.

And the TGI (CCRF-CEM leukemia)?
Its TGI is over 25000 nM.

And the GI50 (SK-MEL-2 melanoma)?
The GI50 was 405 nM.

What about the TGI (SK-MEL-2 melanoma) of the same compound?
Its TGI is over 25000 nM.

And the GI50 (HCT-15 colon)?
Its GI50 is 686 nM.

And the TGI (HCT-15 colon)?
Its TGI is 6950 nM.

What about the GI50 (HOP-62 NSCLC) of the same compound?
The GI50 was 846 nM.

And the TGI (HOP-62 NSCLC)?
The TGI was over 25000 nM.

What about the GI50 (OVCAR-3 ovarian) of the same compound?
The GI50 was 158 nM.

And the TGI (OVCAR-3 ovarian)?
Its TGI is 964 nM.

What about the GI50 (U251 CNS) of the same compound?
The GI50 was 820 nM.

What about the TGI (U251 CNS) of the same compound?
The TGI was over 25000 nM.

What about the GI50 (LOX IMVI melanoma) of the same compound?
The GI50 was 768 nM.

What about the TGI (LOX IMVI melanoma) of the same compound?
The TGI was over 25000 nM.

And the GI50 (IGROV1 ovarian)?
Its GI50 is 556 nM.

What about the TGI (IGROV1 ovarian) of the same compound?
Its TGI is over 25000 nM.

What about the GI50 (SF-539 CNS) of the same compound?
Its GI50 is 628 nM.

And the TGI (SF-539 CNS)?
Its TGI is 1820 nM.

And the GI50 (TK-10 renal)?
Its GI50 is 963 nM.

And the TGI (TK-10 renal)?
Its TGI is over 25000 nM.

And the GI50 (HS 578T breast)?
The GI50 was 792 nM.

And the TGI (HS 578T breast)?
Its TGI is over 15300 nM.

What about the GI50 (EKVX NSCLC) of the same compound?
The GI50 was 1240 nM.

What about the TGI (EKVX NSCLC) of the same compound?
Its TGI is over 25000 nM.

And the GI50 (OVCAR-8 ovarian)?
The GI50 was 936 nM.

What about the TGI (OVCAR-8 ovarian) of the same compound?
Its TGI is over 25000 nM.

And the GI50 (NCI-H226 lung)?
The GI50 was 1950 nM.

What about the TGI (NCI-H226 lung) of the same compound?
Its TGI is over 25000 nM.

What about the GI50 (NCI-H23 lung) of the same compound?
The GI50 was 825 nM.

And the TGI (NCI-H23 lung)?
The TGI was over 25000 nM.

What about the GI50 (UO-31 renal) of the same compound?
Its GI50 is 1260 nM.

And the TGI (UO-31 renal)?
The TGI was over 25000 nM.

What about the GI50 (SK-MEL-28 melanoma) of the same compound?
Its GI50 is 2970 nM.

And the TGI (SK-MEL-28 melanoma)?
The TGI was over 25000 nM.

What about the GI50 (SNB-75 CNS) of the same compound?
The GI50 was 293 nM.

What about the TGI (SNB-75 CNS) of the same compound?
The TGI was over 25000 nM.

What about the GI50 (SR leukemia) of the same compound?
The GI50 was 141 nM.

What about the TGI (SR leukemia) of the same compound?
Its TGI is over 11400 nM.

What about the GI50 (PC-3 prostate) of the same compound?
The GI50 was 924 nM.

What about the TGI (PC-3 prostate) of the same compound?
Its TGI is over 25000 nM.

And the GI50 (M14 melanoma)?
Its GI50 is 476 nM.

What about the TGI (M14 melanoma) of the same compound?
Its TGI is 2080 nM.

What about the GI50 (A498 renal) of the same compound?
Its GI50 is 154 nM.

And the TGI (A498 renal)?
Its TGI is 4310 nM.

And the GI50 (HT29 colon)?
Its GI50 is 324 nM.

And the TGI (HT29 colon)?
Its TGI is over 8910 nM.

What about the GI50 (COLO 205 colon) of the same compound?
The GI50 was 446 nM.

And the TGI (COLO 205 colon)?
Its TGI is 1120 nM.

And the GI50 (T-47D breast)?
The GI50 was over 19000 nM.

And the TGI (T-47D breast)?
Its TGI is over 25000 nM.

What about the GI50 (SF-268 CNS) of the same compound?
Its GI50 is 867 nM.

What about the TGI (SF-268 CNS) of the same compound?
Its TGI is over 25000 nM.

What about the GI50 (UACC-257 melanoma) of the same compound?
The GI50 was 4670 nM.

What about the TGI (UACC-257 melanoma) of the same compound?
The TGI was over 25000 nM.

What about the GI50 (OVCAR-5 ovarian) of the same compound?
Its GI50 is 2400 nM.

And the TGI (OVCAR-5 ovarian)?
Its TGI is over 25000 nM.

What about the GI50 (KM12 colon) of the same compound?
Its GI50 is 682 nM.

And the TGI (KM12 colon)?
Its TGI is over 25000 nM.

And the GI50 (SK-MEL-5 melanoma)?
Its GI50 is 139 nM.

And the TGI (SK-MEL-5 melanoma)?
The TGI was 604 nM.

What about the GI50 (OVCAR-4 ovarian) of the same compound?
The GI50 was 1210 nM.

And the TGI (OVCAR-4 ovarian)?
The TGI was over 25000 nM.

What about the GI50 (SNB-19 CNS) of the same compound?
Its GI50 is 1120 nM.

And the TGI (SNB-19 CNS)?
The TGI was over 25000 nM.

And the GI50 (786-0 renal)?
Its GI50 is 609 nM.

And the TGI (786-0 renal)?
Its TGI is 4590 nM.

What about the GI50 (UACC-62 melanoma) of the same compound?
The GI50 was 172 nM.

What about the TGI (UACC-62 melanoma) of the same compound?
The TGI was over 25000 nM.

And the GI50 (CAKI-1 renal)?
The GI50 was 1120 nM.

And the TGI (CAKI-1 renal)?
Its TGI is over 25000 nM.

What about the GI50 (SK-OV-3 ovarian) of the same compound?
Its GI50 is 734 nM.

And the TGI (SK-OV-3 ovarian)?
The TGI was over 25000 nM.

What about the GI50 (RPMI-8226 leukemia) of the same compound?
Its GI50 is 263 nM.

What about the TGI (RPMI-8226 leukemia) of the same compound?
The TGI was 4200 nM.

And the GI50 (HL-60(TB) leukemia)?
Its GI50 is 374 nM.

And the TGI (HL-60(TB) leukemia)?
The TGI was 1560 nM.

What about the GI50 (K-562 leukemia) of the same compound?
Its GI50 is 461 nM.

And the TGI (K-562 leukemia)?
The TGI was over 25000 nM.

What about the GI50 (SN12C renal) of the same compound?
Its GI50 is 1070 nM.

And the TGI (SN12C renal)?
The TGI was over 25000 nM.

And the GI50 (SF-295 CNS)?
The GI50 was 485 nM.

And the TGI (SF-295 CNS)?
Its TGI is 1830 nM.

And the GI50 (MDA-MB-231 breast)?
The GI50 was 726 nM.

What about the TGI (MDA-MB-231 breast) of the same compound?
Its TGI is 2980 nM.

And the GI50 (SW-620 colon)?
Its GI50 is 646 nM.

And the TGI (SW-620 colon)?
The TGI was over 25000 nM.

What about the GI50 (NCI-H522 lung) of the same compound?
Its GI50 is 107 nM.

What about the TGI (NCI-H522 lung) of the same compound?
The TGI was 765 nM.

What about the GI50 (MCF7 breast) of the same compound?
The GI50 was 123 nM.

What about the TGI (MCF7 breast) of the same compound?
Its TGI is over 25000 nM.

What about the GI50 (DU-145 prostate) of the same compound?
The GI50 was 648 nM.

What about the TGI (DU-145 prostate) of the same compound?
Its TGI is over 6300 nM.

And the GI50 (HCC-2998 colon)?
The GI50 was 507 nM.

And the TGI (HCC-2998 colon)?
Its TGI is over 25000 nM.

And the GI50 (HOP-92 NSCLC)?
The GI50 was 3000 nM.

What about the TGI (HOP-92 NSCLC) of the same compound?
The TGI was over 25000 nM.

And the GI50 (BT-549 breast)?
The GI50 was 241 nM.

What about the TGI (BT-549 breast) of the same compound?
The TGI was 1520 nM.

And the GI50 (RXF 393 renal)?
The GI50 was 430 nM.

What about the TGI (RXF 393 renal) of the same compound?
The TGI was over 20300 nM.

And the GI50 (A549 NSCLC)?
Its GI50 is 1150 nM.

And the TGI (A549 NSCLC)?
The TGI was over 25000 nM.

What about the GI50 (MALME-3M melanoma) of the same compound?
Its GI50 is over 5510 nM.

What about the TGI (MALME-3M melanoma) of the same compound?
Its TGI is over 25000 nM.

What about the GI50 (HCT-116 colon) of the same compound?
Its GI50 is 417 nM.

What about the TGI (HCT-116 colon) of the same compound?
The TGI was over 25000 nM.

What about the GI50 (MOLT-4 leukemia) of the same compound?
Its GI50 is 853 nM.

What about the TGI (MOLT-4 leukemia) of the same compound?
The TGI was over 25000 nM.

And the GI50 (ACHN renal)?
The GI50 was 1150 nM.

And the TGI (ACHN renal)?
Its TGI is over 25000 nM.
